# Assay results reported in publication PMC9736855, “Discovery of 3-Amino-1H-pyrazole-Based Kinase Inhibitors to Illuminate the Understudied PCTAIRE Family” (International Journal of Molecular Sciences, 2022).
# Legend:
# CDK1/Cyclin B1 = molecular target: T1, CDK1/Cyclin B1 (Homo sapiens, UniProt P06493); test: NanoBRET; format: cell-based; details: read-out: NanoBRET EC50 ± SEM CDK1/Cyclin B1
# T1 construct: Full-length kinases were obtained as plasmids cloned in frame with a terminal NanoLuc-fusion; CS1810C170 (CCNB1); host or cells: HEK293T
# Method in brief: (§1)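 Full-length kinases fused to NanoLuc were expressed in HEK293T cells for 20 h, then cells were equilibrated with serially diluted inhibitor and tracer at its KD,app for 2 h at 37 °C/5% CO2. BRET (450/610 nm) was read after substrate plus extracellular NanoLuc inhibitor; EC50 from normalized 3-parameter fit.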
# CDK5/CDK5R1 = molecular target: T2, CDK5/CDK5R1 (Homo sapiens, UniProt Q00535); test: NanoBRET; format: cell-based; details: read-out: NanoBRET EC50 ± SEM CDK5/CDK5R1
# T2 construct: Full-length kinases were obtained as plasmids cloned in frame with a terminal NanoLuc-fusion; CS1810C173 (CDK5R1); host or cells: HEK293T
# Method in brief: as §1
# CDK5/CDK5R2 = molecular target: T3, CDK5/CDK5R2 (Homo sapiens, UniProt Q00535); test: NanoBRET; format: cell-based; details: read-out: NanoBRET EC50 ± SEM CDK5/CDK5R2
# T3 construct: Full-length kinases were obtained as plasmids cloned in frame with a terminal NanoLuc-fusion; CS1810C174 (CDK5R2); host or cells: HEK293T
# Method in brief: as §1
# CDK5 = details: cited from earlier work
# JNK3 = molecular target: T4, JNK3 (Homo sapiens, UniProt P53779); parameters: method as in PMID 19053485; details: cited from earlier work
# T4 construct: Recombinant protein kinase domains with a concentration of 2 μM were mixed; made in house
# BRPF1B = molecular target: T5, BRPF1B (Homo sapiens, UniProt P55201); test: DSF; format: binding
# T5 construct: purchased in-house DSF panel (SGC Frankfurt)
# MAPKAPK2 = molecular target: T6, MAPKAPK2 (Homo sapiens, UniProt P49137); test: DSF; format: binding
# T6 construct: purchased in-house DSF panel (SGC Frankfurt)
# Description: Recombinant protein kinase domains with a concentration of 2 μM were mixed with a 10 μM compound solution in DMSO, 20 mM HEPES, pH 7.5, and 500 mM NaCl. SYPRO Orange (5000×, Invitrogen) was added as a fluorescence probe (1 µl per mL). Subsequently, temperature-dependent protein unfolding profiles were measured, using the QuantStudio™ 5 realtime PCR machine (Thermo Fisher, Waltham, MA, USA). […] The temperature was raised with a step rate of 3 °C per minute. Data points were analyzed with the internal software (Thermal Shift SoftwareTM Version 1.4, Thermo Fisher) using the Boltzmann equation to determine the inflection point of the transition curve. Differences in melting temperature are given as ΔTm values in °C. Measurements were performed in duplicates.
# EPHB1 = molecular target: T7, EPHB1 (Homo sapiens, UniProt P54762); test: DSF; format: binding
# T7 construct: purchased in-house DSF panel (SGC Frankfurt)
# Description: (§2) Recombinant protein kinase domains with a concentration of 2 μM were mixed with a 10 μM compound solution in DMSO, 20 mM HEPES, pH 7.5, and 500 mM NaCl. SYPRO Orange (5000×, Invitrogen) was added as a fluorescence probe (1 µl per mL). Subsequently, temperature-dependent protein unfolding profiles were measured, using the QuantStudio™ 5 realtime PCR machine (Thermo Fisher, Waltham, MA, USA). […] The temperature was raised with a step rate of 3 °C per minute. Data points were analyzed with the internal software (Thermal Shift SoftwareTM Version 1.4, Thermo Fisher) using the Boltzmann equation to determine the inflection point of the transition curve [56]. Differences in melting temperature are given as ΔTm values in °C. Measurements were performed in duplicates.
# MAP3K5 = molecular target: T8, MAP3K5 (Homo sapiens, UniProt Q99683); test: DSF; format: binding
# T8 construct: purchased in-house DSF panel (SGC Frankfurt)
# Description: as §2
# MAPK8 = molecular target: T9, MAPK8 (Homo sapiens, UniProt P45983); test: DSF; format: binding
# T9 construct: purchased in-house DSF panel (SGC Frankfurt)
# Description: as §2
# RPS6KA5 = test: DSF; format: binding
# Description: as §2
# SPRK1 = molecular target: T10, SPRK1 (Homo sapiens, UniProt Q96SB4); test: DSF; format: binding
# T10 construct: purchased in-house DSF panel (SGC Frankfurt)
# Description: as §2
# TLK1 = molecular target: T11, TLK1 (Homo sapiens, UniProt Q9UKI8); test: DSF; format: binding
# T11 construct: purchased in-house DSF panel (SGC Frankfurt)
# Description: as §2
# PCTAIRE family = test: NanoBRET; format: cell-based; details: read-out: cellular potency, other members of the PCTAIRE family
# Method in brief: as §1
# [1] = Microsomal stability assay; format: in vitro ADME, Sprague-Dawley rats; details: rat liver microsomes, 10 µM, 37 °C, 60 min
# Description: The lead structure 1 was not included in this assay due to its promiscuous behaviour. Since 1 is presumably not suitable as a tool compound to study the effect of selective kinase inhibition in an in vivo application, we focused on the newly synthesized compounds 21i and 43d. The compounds were tested against an activated microsome mix derived from the liver of Sprague-Dawley rats, as previously reported. 21i and 43d were incubated at 37 °C for 60 min and the amount of unmetabolized compound was determined in 15 min steps, using high-performance liquid chromatography (HPLC).
# The solubilized test compound (5 μL, final concentration 10 µM) was preincubated at 37 °C in 432 μL of phosphate buffer (0.1 M, pH 7.4) together with 50 μL NADPH regenerating system (30 mM glucose 6 phosphate, 4 U/mL glucose 6 phosphate dehydrogenase, 10 mM NADP, 30 mM MgCl2). After 5 min, the reaction was started by the addition of 13 μL of microsome mix from the liver of Sprague−Dawley rats (Invitrogen; 20 mg protein/mL in 0.1 M phosphate buffer) in a shaking water bath at 37 °C. The reaction was stopped by adding 500 μL of ice cold methanol at 0, 15, 30 and 60 min. […] The amounts of the test compound were quantified by an external calibration curve. Data are expressed as the mean ± SEM remaining compound from three independent experiments.
# GSK3B = GSK3B (Homo sapiens, UniProt P49841); test: NanoBRET; format: cell-based; parameters: Full-length kinases were obtained as plasmids cloned in frame with a terminal NanoLuc-fusion; host or cells: HEK293T
# Description: The assay was performed as described previously. In brief: Full-length kinases were obtained as plasmids cloned in frame with a terminal NanoLuc-fusion (Promega, Madison, WI, USA), as specified in table (Table S6). Plasmids were transfected into HEK293T cells using FuGENE HD (Promega, E2312) and proteins were allowed to express for 20h. Serially diluted inhibitor and NanoBRET Kinase Tracer (Promega) at a concentration determined previously as the KD,app (Table S5) were pipetted into white 384-well plates (Greiner 781207) using an Echo acoustic dispenser (Labcyte, San Jose, CA, USA). The corresponding protein-transfected cells were added and reseeded at a density of 2.5 × 10^5 cells/mL after trypsinization and resuspending in Opti-MEM without phenol red (Life Technologies, Carlsbad, CA, USA). The system was allowed to equilibrate for 2 h at 37 °C/5% CO2 prior to BRET measurements. To measure BRET, NanoBRET NanoGlo Substrate + Extracellular NanoLuc Inhibitor (Promega, N2540) was added as per the manufacturer’s protocol, and filtered luminescence was measured on a PHERAstar plate reader (BMG Labtech, Ortenberg, Germany) equipped with a luminescence filter pair (450 nm BP filter (donor) and 610 nm LP filter (acceptor)). […]
# T9 sequence (P45983 1-364): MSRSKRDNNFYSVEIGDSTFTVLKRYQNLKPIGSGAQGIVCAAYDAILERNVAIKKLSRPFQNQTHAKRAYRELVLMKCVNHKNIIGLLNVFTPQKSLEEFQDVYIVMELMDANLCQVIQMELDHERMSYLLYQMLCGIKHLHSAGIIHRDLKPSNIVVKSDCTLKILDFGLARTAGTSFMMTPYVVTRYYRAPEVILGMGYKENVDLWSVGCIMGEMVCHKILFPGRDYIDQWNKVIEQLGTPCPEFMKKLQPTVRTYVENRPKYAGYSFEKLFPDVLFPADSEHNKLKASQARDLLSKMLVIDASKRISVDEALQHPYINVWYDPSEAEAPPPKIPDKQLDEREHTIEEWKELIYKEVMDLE
# T10 sequence (Q96SB4 whole entry): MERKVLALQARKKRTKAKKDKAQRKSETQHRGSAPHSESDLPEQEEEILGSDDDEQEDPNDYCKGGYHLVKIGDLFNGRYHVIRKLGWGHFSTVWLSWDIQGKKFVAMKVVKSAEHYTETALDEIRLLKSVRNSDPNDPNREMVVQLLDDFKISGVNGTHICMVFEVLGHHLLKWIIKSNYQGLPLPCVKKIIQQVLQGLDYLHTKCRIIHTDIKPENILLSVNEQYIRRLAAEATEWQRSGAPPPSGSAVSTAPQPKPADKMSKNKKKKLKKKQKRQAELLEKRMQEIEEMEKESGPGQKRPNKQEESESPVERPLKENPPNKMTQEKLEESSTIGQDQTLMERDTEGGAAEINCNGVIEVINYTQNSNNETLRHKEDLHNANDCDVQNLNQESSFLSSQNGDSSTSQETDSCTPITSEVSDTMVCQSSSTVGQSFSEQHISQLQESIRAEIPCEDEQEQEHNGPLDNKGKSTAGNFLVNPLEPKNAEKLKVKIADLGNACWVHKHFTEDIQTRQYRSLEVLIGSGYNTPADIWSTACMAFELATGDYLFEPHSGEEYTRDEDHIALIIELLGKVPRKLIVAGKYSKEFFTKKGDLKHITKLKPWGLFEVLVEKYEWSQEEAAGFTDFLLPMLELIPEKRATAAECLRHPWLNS
# T8 sequence (Q99683 659-951): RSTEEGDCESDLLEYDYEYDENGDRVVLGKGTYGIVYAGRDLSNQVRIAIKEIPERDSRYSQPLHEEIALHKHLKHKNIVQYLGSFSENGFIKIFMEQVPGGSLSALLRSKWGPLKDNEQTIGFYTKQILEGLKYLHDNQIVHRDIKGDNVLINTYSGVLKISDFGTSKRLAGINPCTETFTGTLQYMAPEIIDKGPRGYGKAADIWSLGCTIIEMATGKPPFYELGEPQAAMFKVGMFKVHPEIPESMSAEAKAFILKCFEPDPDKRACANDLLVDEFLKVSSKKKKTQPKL
# T6 sequence (P49137 64-325): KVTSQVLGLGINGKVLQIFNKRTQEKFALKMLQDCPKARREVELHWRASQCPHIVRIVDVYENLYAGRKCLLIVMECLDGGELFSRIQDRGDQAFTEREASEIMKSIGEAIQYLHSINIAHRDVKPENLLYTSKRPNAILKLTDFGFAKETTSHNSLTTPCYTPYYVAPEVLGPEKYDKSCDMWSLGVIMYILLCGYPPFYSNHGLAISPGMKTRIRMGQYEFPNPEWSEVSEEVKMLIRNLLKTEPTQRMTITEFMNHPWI
# T5 sequence (P55201 whole entry): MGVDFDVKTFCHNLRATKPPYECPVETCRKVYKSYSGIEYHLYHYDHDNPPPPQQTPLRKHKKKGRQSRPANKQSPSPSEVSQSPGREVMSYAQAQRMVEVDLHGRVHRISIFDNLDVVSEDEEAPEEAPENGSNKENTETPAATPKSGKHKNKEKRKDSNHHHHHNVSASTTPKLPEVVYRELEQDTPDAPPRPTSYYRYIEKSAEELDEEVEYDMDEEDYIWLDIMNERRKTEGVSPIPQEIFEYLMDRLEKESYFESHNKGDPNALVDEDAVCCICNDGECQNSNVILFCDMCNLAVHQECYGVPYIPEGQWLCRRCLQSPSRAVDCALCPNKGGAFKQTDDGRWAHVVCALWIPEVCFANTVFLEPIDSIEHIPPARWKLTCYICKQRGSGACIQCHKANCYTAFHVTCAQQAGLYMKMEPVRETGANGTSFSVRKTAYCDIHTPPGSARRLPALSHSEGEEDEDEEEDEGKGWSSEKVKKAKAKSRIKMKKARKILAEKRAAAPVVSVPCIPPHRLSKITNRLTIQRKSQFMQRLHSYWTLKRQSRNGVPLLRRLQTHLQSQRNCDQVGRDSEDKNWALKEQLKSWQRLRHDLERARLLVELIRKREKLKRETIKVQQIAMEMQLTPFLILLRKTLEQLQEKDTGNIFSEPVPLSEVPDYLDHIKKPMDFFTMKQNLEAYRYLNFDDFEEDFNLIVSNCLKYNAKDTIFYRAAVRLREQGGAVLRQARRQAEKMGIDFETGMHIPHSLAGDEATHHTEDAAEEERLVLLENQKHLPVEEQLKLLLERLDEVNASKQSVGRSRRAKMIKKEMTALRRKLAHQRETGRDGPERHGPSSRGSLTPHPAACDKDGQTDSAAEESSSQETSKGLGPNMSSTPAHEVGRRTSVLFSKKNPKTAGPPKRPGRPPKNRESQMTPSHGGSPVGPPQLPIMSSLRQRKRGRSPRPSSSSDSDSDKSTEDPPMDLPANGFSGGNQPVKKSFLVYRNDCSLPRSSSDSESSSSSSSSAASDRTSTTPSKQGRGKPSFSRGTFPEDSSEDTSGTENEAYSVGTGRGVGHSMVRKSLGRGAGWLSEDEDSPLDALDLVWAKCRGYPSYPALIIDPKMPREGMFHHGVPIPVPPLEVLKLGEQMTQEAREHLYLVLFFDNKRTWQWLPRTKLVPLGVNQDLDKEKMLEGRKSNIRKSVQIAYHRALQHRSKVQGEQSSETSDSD
# T7 sequence (P54762 602-896): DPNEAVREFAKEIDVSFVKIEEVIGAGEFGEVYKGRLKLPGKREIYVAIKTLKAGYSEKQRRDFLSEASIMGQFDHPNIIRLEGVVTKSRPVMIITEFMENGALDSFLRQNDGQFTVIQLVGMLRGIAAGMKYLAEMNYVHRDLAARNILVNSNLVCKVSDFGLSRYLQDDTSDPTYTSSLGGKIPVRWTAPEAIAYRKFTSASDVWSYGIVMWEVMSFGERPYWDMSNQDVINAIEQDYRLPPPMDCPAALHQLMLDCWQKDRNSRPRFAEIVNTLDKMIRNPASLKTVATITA
# T11 sequence (Q9UKI8 456-734): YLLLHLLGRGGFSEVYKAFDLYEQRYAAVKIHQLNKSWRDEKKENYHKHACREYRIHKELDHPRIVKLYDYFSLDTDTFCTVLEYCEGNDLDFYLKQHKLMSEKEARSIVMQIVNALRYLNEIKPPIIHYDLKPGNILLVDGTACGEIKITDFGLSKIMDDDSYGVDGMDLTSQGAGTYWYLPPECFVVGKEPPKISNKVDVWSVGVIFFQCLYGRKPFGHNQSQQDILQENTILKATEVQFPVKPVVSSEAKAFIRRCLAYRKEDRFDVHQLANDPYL
# T2 sequence (Q00535 whole entry, the tested form may be a part): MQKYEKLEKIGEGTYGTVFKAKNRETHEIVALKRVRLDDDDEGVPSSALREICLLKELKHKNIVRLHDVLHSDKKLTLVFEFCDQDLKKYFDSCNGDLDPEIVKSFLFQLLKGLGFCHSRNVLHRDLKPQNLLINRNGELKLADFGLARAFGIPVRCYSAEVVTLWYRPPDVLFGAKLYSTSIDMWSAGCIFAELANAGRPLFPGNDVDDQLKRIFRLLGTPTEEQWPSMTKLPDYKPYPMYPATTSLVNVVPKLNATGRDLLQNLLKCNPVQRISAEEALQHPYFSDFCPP
# T2 sequence (Q15078 whole entry partner, the tested form may be a part): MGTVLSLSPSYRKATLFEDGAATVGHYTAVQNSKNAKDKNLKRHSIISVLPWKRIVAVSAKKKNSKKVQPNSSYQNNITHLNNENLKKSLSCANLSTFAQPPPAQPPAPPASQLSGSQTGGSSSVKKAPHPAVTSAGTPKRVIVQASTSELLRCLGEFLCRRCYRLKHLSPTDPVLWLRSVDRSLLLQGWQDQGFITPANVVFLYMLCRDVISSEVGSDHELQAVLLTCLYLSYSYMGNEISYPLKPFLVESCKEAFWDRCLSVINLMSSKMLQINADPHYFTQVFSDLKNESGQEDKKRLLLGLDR
# T3 sequence (Q00535 whole entry, the tested form may be a part): as the sequence (Q00535 whole entry, the tested form may be a part) above
# T3 sequence (Q13319 whole entry partner, the tested form may be a part): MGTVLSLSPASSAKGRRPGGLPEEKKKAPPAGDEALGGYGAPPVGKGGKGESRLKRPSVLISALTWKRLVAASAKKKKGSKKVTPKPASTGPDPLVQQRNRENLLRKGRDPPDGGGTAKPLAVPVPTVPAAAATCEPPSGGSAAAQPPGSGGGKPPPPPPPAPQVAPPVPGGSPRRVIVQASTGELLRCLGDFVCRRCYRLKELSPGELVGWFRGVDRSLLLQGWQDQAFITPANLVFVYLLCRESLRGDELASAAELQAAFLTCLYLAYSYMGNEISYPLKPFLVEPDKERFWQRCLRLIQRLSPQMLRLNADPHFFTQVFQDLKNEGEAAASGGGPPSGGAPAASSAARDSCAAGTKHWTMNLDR
# T4 sequence (P53779 64-359 limits assumed): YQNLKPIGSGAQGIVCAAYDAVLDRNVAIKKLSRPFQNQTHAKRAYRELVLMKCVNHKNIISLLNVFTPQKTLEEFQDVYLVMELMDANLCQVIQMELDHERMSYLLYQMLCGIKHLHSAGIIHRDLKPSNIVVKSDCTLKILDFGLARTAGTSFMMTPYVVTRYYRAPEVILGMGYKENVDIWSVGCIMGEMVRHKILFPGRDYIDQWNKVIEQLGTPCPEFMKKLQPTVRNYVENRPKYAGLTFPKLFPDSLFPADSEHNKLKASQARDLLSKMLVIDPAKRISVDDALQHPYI
Compound,EC50 (CDK1/Cyclin B1),EC50 (CDK5/CDK5R1),EC50 (CDK5/CDK5R2),Kd (CDK5),Kd (JNK3),ΔTm BRPF1B (BRPF1B),ΔTm MAPKAPK2 (MAPKAPK2),ΔTm EPHB1 (EPHB1),ΔTm MAP3K5 (MAP3K5),ΔTm MAPK8 (MAPK8),ΔTm RPS6KA5 (RPS6KA5),ΔTm SPRK1 (SPRK1),ΔTm TLK1 (TLK1),EC50 (PCTAIRE family),unmetabolized compound detected [1],NanoBRET EC50 GSK3B (GSK3B)
"N#CCc1ccc(Nc2nccc(Nc3cc(C4CC4)[nH]n3)n2)cc1 [compound 1, reference compound]",0.0631 ± 0.0104 µM,0.0303 ± 0.0103 µM,0.0119 ± 0.0028 µM,0.0276 µM,0.0261 µM,–,–,–,–,–,–,–,–,–,–,–
"CC(C)(C)OC(=O)Nc1ccc(CNc2nccc(Nc3cc(C(=O)OC(C)(C)C)[nH]n3)n2)cc1 [43d, tert-butyl 3-((2-((4-((tert-butoxycarbonyl)amino)benzyl)amino)pyrimidin-4-yl)amino)-1H-pyrazole-5-carboxylate]",–,–,–,–,–,-0.9 °C,0.2 °C,1.0 °C,0.1 °C,-0.1 °C,1.7 °C,0.4 °C,-1.4 °C,0.02 to 0.12 µM,79%,negligible
"CC(C)OC(=O)c1cc(Nc2ccnc(NCc3ccc(NC(=O)OC(C)(C)C)cc3)n2)n[nH]1 [42d, isopropyl 3-((2-((4-((tert-butoxycarbonyl)amino)benzyl)amino)pyrimidin-4-yl)amino)-1H-pyrazole-5-carboxylate]",–,–,–,–,–,-1.4 °C,-0.3 °C,0.9 °C,0.1 °C,-0.8 °C,0.8 °C,-0.2 °C,-1.2 °C,–,–,–
"COC(=O)c1cc(Nc2ccnc(NCc3ccc(NC(=O)OC(C)(C)C)cc3)n2)[nH]n1 [21i, methyl 5-((2-((4-((tert-butoxycarbonyl)amino)benzyl)amino)pyrimidin-4-yl)amino)-1H-pyrazole-3-carboxylate]",9.3 ± 5.79 µM,28.6 ± 4.65 µM,38.6 ± 5.85 µM,–,–,–,–,–,–,–,–,–,–,–,16%,–
